Measured values published in patent US20250346582A1, “SPLEEN TYROSINE KINASE INHIBITORS AND METHODS OF USE THEREOF” (THE BOARD OF TRUSTEES OF THE UNIVERSITY OF ILLINOIS, priority 2022, published 2025).

What was measured:
Assay type in all cases: cell-based
MV4-11 cells = assay: Generation of drug-resistant MV4-11 cells under chronic treatment; conditions: inhibitor increased from 0.5 to 5 μM over 10 weeks
Protocol: (§1) Then the concentration was maintained at 5 μM.

patient AML cells = assay: Colony growth assay of patient-derived AML cells; conditions: primary AML cells from 4 patients
Protocol: Primary samples were obtained from an existing HEMBANK at UIC under an IRB approved research protocol (protocol #2021-0723). Cells were processed and treated with inhibitors as reported previously^75. For primary AML samples, mononuclear cells isolated by Ficoll density centrifugation were utilized. mononuclear cells were treated in culture at a density of 0.5×10^6/ml in StemSpan with CD34 expansion supplement (Stemcell Technologies) for 24 h and then harvested for immunoblotting assays. In parallel 2×10^4 cells were plated in triplicate for each treatment condition in Methoccult H4434 (Stem Cell Technologies) in the presence of drug. At days 12-14, colonies were manually enumerated under light microscopy and normalized to DMSO control for each individual sample due to interpatient variability in colony forming activity. Normalized colony forming units for pooled treated and untreated samples (n=4) were compared using unpaired 2-tailed t test. p<0.05 was considered statistically significant.

Syk = target: T1, Syk (Homo sapiens, UniProt P43405); assay: Streptavidin pull down assay with WC36B in MV4-11 cells; conditions: WC36B-streptavidin pull down
T1 construct: host or cells: MV4-11 AML cells (naive and entospletinib-resistant)
Protocol: Streptavidin-coated beads (Dynabeads™ M280 streptavidin beads; ThermoFisher) were washed twice with 1 ml of PBST (PBS+0.1% Tween 20) and resuspended in 100 μl of PBST. WC36B (or biotin) (10 mM) was added to 100 μl of the bead suspension and the mixture was incubated at room temperature for 15 min with gentle shaking. The mixture was then vortexed for 5 s and the tube was placed on a magnet for 1 min. After discarding the supernatant, the beads were resuspended in the same volume of the washing buffer. Washing is repeated three times to remove excess WC36B. WC36B-coated beads were then incubated with the cell lysate (MV-4-11) for 30 min at room temperature with gentle shaking. Protein-coated beads were separated with a magnet for 2-3 min and washed 4-5 times with PBS containing 0.1% BSA. The protein was then removed from the beads by boiling the beads in the SDS-polyacrylamide gel electrophoresis (PAGE) application buffer. Samples were concentrated for the mass spectrometry analysis and the western blot assay.

[1] = test system: entospletinib-resistant MV4-11 cells; assay: XTT cell proliferation assay, entospletinib-resistant MV4-11 cells; conditions: Homo sapiens, read-out: IC50, inhibition of proliferation (XTT assay)
Protocol: as §1
(§2) MV4-11 or HL-60 cells were seeded into a clear-bottom 96-well plate containing varying concentrations of inhibitors in the optimal growth media described above and the mixtures were incubated for 16 h. Cells were then treated with a mixture of XTT-labeling reagents and the electron coupling reagents according to the manufacturer's protocol (Roche). After 4 h, the absorbance values at 475 nm and at 660 nm were simultaneously measured by Synergy™ Neo spectrofluorometer at 25° C. Cells with the growth media was used for background correction.

HL60 cells = assay: XTT cell proliferation assay, HL60 cells
Protocol: as §2

[N-]=[N+]=C(C(=O)OC1CCCCC1)C(Nc1ncccn1)c1c[nH]c2ccccc12 (racemic) [WC36, Cyclohexyl 2-diazo-3-(1H-indol-3-yl)-3-(pyrimidin-2-ylamino)propanoate]
development of acquired resistance (MV4-11 cells): could not develop resistance to WC36
suppression of colony forming activity (patient AML cells): statistically significant suppression of colony forming activity
competition with WC36B for Syk binding (Syk): able to compete with WC36B for Syk binding
IC50 [1]: 500 ± 10 nM
inhibition of proliferation (XTT assay) (HL60 cells): potently suppressed the proliferation of HL60 cells
